US20070160725A1, “Use of extracts and compounds of allium-genus plants as preservatives in the food and agri-food industries” (MOUSALA, S., L., priority 2004, published 2007)

How the values were obtained:
[1] = test system: Aspergillus niger, CECT 2700; assay: agar diffusion, inhibition halo; type: cell-based
Experimental: (§1) In order to evaluate the antimicrobial activity the agar diffusion technique with cellulose discs of 6 mm in diameter impregnated with the different active ingredient testing doses was used.
(§2) Antifungal capacity was assessed against suspensions of […], harvested from pure cultures of the selected molds and against suspensions of 10^7 cells/ml for the case of yeasts. The culture medium used was the 2% Sabouraud-glucose medium (Merck).
(§3) After incubating the culture dishes inoculated with the different organisms at the corresponding temperatures, the microbial inhibition halos that appeared were measured, and said measurement includes the 6 mm diameter of the cellulose discs.

[2] = test system: Aspergillus terreus, isolated from the environment of the cheese maturation chamber; assay: agar diffusion, inhibition halo; type: cell-based
Experimental: as §1, §2, §3

[3] = test system: Candida krusei, isolated from cheese; assay: agar diffusion, inhibition halo; type: cell-based
Experimental: as §1, §2, §3

[4] = test system: Candida magnoliae, isolated from cheese; assay: agar diffusion, inhibition halo; type: cell-based
Experimental: as §1, §2, §3

[5] = test system: Candida parapsilosis, isolated from cheese; assay: agar diffusion, inhibition halo; type: cell-based
Experimental: as §1, §2, §3

[6] = test system: Penicillium sp, isolated from cheese; assay: agar diffusion, inhibition halo; type: cell-based
Experimental: as §1, §2, §3

[7] = test system: Saccharomyces cerevisiae, CECT 1324; assay: agar diffusion, inhibition halo; type: cell-based
Experimental: as §1, §2, §3

[8] = test system: Total mesophilic aerobes; assay: microbiological quality of treated hamburgers and fresh sausage: total mesophilic aerobe count
Experimental: (§4) The tests were conducted on meat products such as hamburgers and fresh sausage at different doses, with and without the usual preservatives (sulfites).
(§5) Each sample is prepared in quintuplicate and microbiological quality control over time is conducted, a triplicate of each sample being performed.
The method used to determine the number of germs per gram was the dish count number, starting from serial decimal dilutions of the sample and using the surface seeding technique.
The culture medium used was nutrient agar (Merck PCA) prepared on Petri dishes on which, from the serial decimal dilutions of the sample (from −1 . . . to −6 in Merck triptone soy broth or TSB), 0.1 mL of each one of the dilutions was transferred.
Dish incubation temperature was 31±1° C.
The final result is expressed as the total microorganism count per gram of sample (said count is performed in the dilutions in which between 30-300 colonies/dish are detected).
(§6) Two different raw meat products (sausages and hamburgers) treated with different allicin doses are prepared. • The used testing doses were: 25, 50 and 100 ppm.
(§7) Five samples of each product (hamburger and sausage) are prepared, each one of them being analyzed in triplicate.
(§8) The microbiological parameters analyzed were as follows: • Total mesophilic aerobes • Coliforms • Escherichia coli • Salmonella (presence/absence in 25 g) • Said parameters were analyzed at different times: • 0 days • 4 days • 7 days • The sample references resulted as follows: […]

[9] = test system: Escherichia coli; assay: microbiological quality of treated hamburgers and fresh sausage: Escherichia coli count
Experimental: as §4, §5
The positive Brila Broth tubes obtained in the coliform study are used according to the following protocol:
All the tubes having gas production are subcultured again with an inoculation loop in tubes containing 10 mL of Brila Broth (with a Durham tube), being incubated at 44.5° C. for 24-48 hours.
Once the incubation has elapsed the existence of Escherichia coli is assumed in any tube with growth and with gas formation under the previously discussed conditions.
Eosine Methylene Blue (Merck EMB) was used as a selective confirmation medium, isolating on dishes containing EMB from all the positive tubes. The occurrence of colonies measuring 2-3 mm in diameter (planar or slightly concave), with dark almost black centers occupying ¾ of the colony which, with reflected light, sometimes show a greenish metallic glow, which are most likely Escherichia coli, the confirmation of which is done by means of the indole biochemistry test.
When positive growth (gas) in Brila Broth at 44.5° C., indole production and characteristic growth on EMB agar coincide, the reading is done in the MPN table and the data is extrapolated.
The result is expressed as the number of
Escherichia coli per gram of sample.
as §6, §7, §8

[10] = test system: Salmonella; assay: microbiological quality of treated hamburgers and fresh sausage: Salmonella study
Experimental: as §4, §5
The systematic testing used consisted of three steps: • a) Pre-enrichment in non-selective liquid medium. • b) Enrichment in selective liquid medium. • c) Differential isolation on selective solid means. a) Non-Selective Pre-Enrichment
The medium of choice is buffered peptone water.
25 g of the product to be analyzed are aseptically weighed and diluted in 225 mL of buffered peptone water to obtain a 1:10 dilution. It is mixed well and taken to be incubated at 37° C. for 16-20 hours.
The pre-enrichment culture is stirred and 10 mL thereof are taken with a sterile pipette, seeding it onto 100 mL of selenite-cysteine broth (Merck), incubating it at 37° C. for 18-24 hours.
From the culture obtained in the selective liquid medium, selenite-cysteine broth, seeding is performed on the second dish, in duplicate and without overloading the loop, on xylose lysine deoxycholate (XLD, Merck) agar, Rambach agar (Merck), and SS agar (Merck).
All the seeded dishes are incubated in an oven at 37° C. for 24-48 hours.
The test is positive when typical colonies are detected in at least two of the four mediums, which are confirmed with supplementary biochemical tests.
as §6, §7, §8

[11] = hamburger, 25 ppm of allicin (H-1), t = 0 days
[12] = hamburger, 25 ppm of allicin (H-1), t = 4 days
[13] = hamburger, 50 ppm of allicin (H-2), t = 0 days
[14] = hamburger, 50 ppm of allicin (H-2), t = 4 days
[15] = hamburger, 100 ppm of allicin (H-3), t = 0 days
[16] = hamburger, 100 ppm of allicin (H-3), t = 4 days
[17] = sausage, 25 ppm of allicin (S-1), t = 0 days
[18] = sausage, 25 ppm of allicin (S-1), t = 4 days
[19] = sausage, 50 ppm of allicin (S-2), t = 0 days
[20] = sausage, 50 ppm of allicin (S-2), t = 4 days
[21] = sausage, 100 ppm of allicin (S-3), t = 0 days
[22] = sausage, 100 ppm of allicin (S-3), t = 4 days

Compound `C=CCS[S+]([O-])CC=C` (stereo not shown) [Allicin, allyl allylthiosulfinate] has an inhibition halo diameter ([1]; 25 ppm) of 10 mm, an inhibition halo diameter ([1]; 50 ppm) of 13 mm and an inhibition halo diameter ([1]; 100 ppm) of 19 mm. The inhibition halo diameter ([2]; 25 ppm) was 12 mm, the inhibition halo diameter ([2]; 50 ppm) was 22 mm and the inhibition halo diameter ([2]; 100 ppm) was 25 mm. It also gave an inhibition halo diameter ([3]; 25 ppm) of 14 mm, an inhibition halo diameter ([3]; 50 ppm) of 18 mm and an inhibition halo diameter ([3]; 100 ppm) of 29 mm. The inhibition halo diameter ([4]; 25 ppm) was 22 mm, the inhibition halo diameter ([4]; 50 ppm) was 30 mm and the inhibition halo diameter ([4]; 100 ppm) was 38 mm. The inhibition halo diameter ([5]; 50 ppm) was 14 mm, the inhibition halo diameter ([5]; 100 ppm) was 17 mm and the inhibition halo diameter ([6]; 25 ppm) was 22 mm. For the same compound, the inhibition halo diameter ([6]; 50 ppm) was 26 mm, the inhibition halo diameter ([6]; 100 ppm) was 34 mm and the inhibition halo diameter ([7]; 25 ppm) was 28 mm. The inhibition halo diameter ([7]; 50 ppm) was 32 mm, the inhibition halo diameter ([7]; 100 ppm) was 44 mm and the “reduction of total mesophilic aerobes with respect to untreated controls” value ([8]; allicin 100 ppm, all sausage samples and hamburgers, maintained from 0 to 4 days) was “reduction of one logarithmic unit”. The Total aerobes [8, 11] was 2.17 × 10^6 cfu/g, the Total aerobes [8, 12] was 1.56 × 10^8 cfu/g and the Total aerobes [8, 13] was 9.01 × 10^5 cfu/g. For the same compound, the Total aerobes [8, 14] was 6.23 × 10^7 cfu/g, the Total aerobes [8, 15] was 4.08 × 10^5 cfu/g and the Total aerobes [8, 16] was 3.17 × 10^7 cfu/g. For the same compound, the Total aerobes [8, 17] was 2.24 × 10^5 cfu/g, the Total aerobes [8, 18] was 3.08 × 10^6 cfu/g and the Total aerobes [8, 19] was 8.99 × 10^4 cfu/g. The Total aerobes [8, 20] was 2.72 × 10^6 cfu/g, the Total aerobes [8, 21] was 6.06 × 10^4 cfu/g and the Total aerobes [8, 22] was 3.10 × 10^5 cfu/g. The Escherichia coli [9, 11] was 23 cfu/g, the Escherichia coli [9, 12] was 150 cfu/g and the Escherichia coli [9, 13] was 23 cfu/g. For the same compound, the Escherichia coli [9, 14] was 150 cfu/g, the Escherichia coli [9, 15] was 23 cfu/g and the Escherichia coli [9, 16] was 43 cfu/g. It also gave an Escherichia coli [9, 17] of under 3 cfu/g, an Escherichia coli [9, 18] of 4 cfu/g and an Escherichia coli [9, 19] of under 3 cfu/g. It also gave an Escherichia coli [9, 20] of 4 cfu/g, an Escherichia coli [9, 21] of under 3 cfu/g and an Escherichia coli [9, 22] of under 3 cfu/g. The Salmonella growth ([10]; allicin doses of 50 and 100 ppm) was “able to inhibit Salmonella growth”, the “Salmonella (in 25 g)” value [10, 11] was “presence” and the “Salmonella (in 25 g)” value [10, 12] was “presence”. For the same compound, the “Salmonella (in 25 g)” value [10, 13] was “presence”, the “Salmonella (in 25 g)” value [10, 14] was “presence” and the “Salmonella (in 25 g)” value [10, 15] was “presence”. For the same compound, the “Salmonella (in 25 g)” value [10, 16] was “presence”, the “Salmonella (in 25 g)” value [10, 17] was “absence” and the “Salmonella (in 25 g)” value [10, 18] was “presence”. For the same compound, the “Salmonella (in 25 g)” value [10, 19] was “absence”, the “Salmonella (in 25 g)” value [10, 20] was “presence” and the “Salmonella (in 25 g)” value [10, 21] was “absence”. For the same compound, the “Salmonella (in 25 g)” value [10, 22] was “presence”.
